# Experimental data: patent US20240148821A1, “PHARMACEUTICAL USE OF CYCLIC PEPTIDE COMPOUND” (CHUGAI SEIYAKU KABUSHIKI KAISHA, priority 2021, published 2024)
# Numbered stars: 1 amine (or outer) side, 2 acyl side, 3 side chain; on linkers, the order of the positions; unused ones are H or OH. Bridge positions count the residues as written; N and C are the ends. Square brackets hold non-standard residues; d marks the D form. Peptide text beside a SMILES is read from it. * marks the point of attachment. hPhe(3-Cl-4-CF3) = N[C@@H](CCc1ccc(C(F)(F)F)c(Cl)c1)C(=O)O; hPhe(3-F,4-CF3) = N[C@@H](CCc1ccc(C(F)(F)F)c(F)c1)C(=O)O; NEtPhe(4-CF3) = CCN[C@@H](Cc1ccc(C(F)(F)F)cc1)C(=O)O; NMePhe(4-CF3) = CN[C@@H](Cc1ccc(C(F)(F)F)cc1)C(=O)O; hPhe(4-CF3) = N[C@@H](CCc1ccc(C(F)(F)F)cc1)C(=O)O; NMePhe(4-Cl) = CN[C@@H](Cc1ccc(Cl)cc1)C(=O)O; X116 = O=C([C@H](CCc1cccc(F)c1)N[*:1])[*:2]; NMedβ3hAla = C[C@H](CC(=O)[*:2])N(C)[*:1]; NMeGly(cPent) = CN[C@H](C(=O)O)C1CCCC1; Phe(3-I) = N[C@@H](Cc1cccc(I)c1)C(=O)O; Phe(4-Me) = Cc1ccc(C[C@H](N)C(=O)O)cc1; NMeGly(cBu) = CN[C@H](C(=O)O)C1CCC1; NMeCha = CN[C@@H](CC1CCCCC1)C(=O)O; hhPhe = N[C@@H](CCCc1ccccc1)C(=O)O; X4 = C#CC[C@H](CC(=O)[*:2])N[*:1]; Hyp = O=C(O)[C@@H]1C[C@@H](O)CN1; NEtLeu = CCN[C@@H](CC(C)C)C(=O)O; NMeChg = CN[C@H](C(=O)O)C1CCCCC1; NMeF = CN[C@@H](Cc1ccccc1)C(=O)O; NMeI = CC[C@H](C)[C@H](NC)C(=O)O; NMeT = CN[C@H](C(=O)O)[C@@H](C)O; NMeD = CN[C@@H](CC(=O)O)C(=O)O; NMeL = CN[C@@H](CC(C)C)C(=O)O; Chg = N[C@H](C(=O)O)C1CCCCC1; NMeV = CN[C@H](C(=O)O)C(C)C; d(β3hA) = C[C@@H](N)CC(=O)O; NMeS = CN[C@@H](CO)C(=O)O; Pip = O=C(O)[C@@H]1CCCCN1; NMeA = CN[C@@H](C)C(=O)O; Piperidide = C1CCN(*)CC1; Pyrrolidide = C1CCN(*)C1; Ac5c = NC1(C(=O)O)CCCC1; Aze = O=C(O)[C@@H]1CCN1; Cyclopropyl = C1CC1*; Sar = CNCC(=O)O; Propyl = CCC*
# Target: protein-protein interaction between Kras and SOS1 (biotin-tagged human Kras loaded with GDP, His-tagged human SOS1) (Homo sapiens (Human), UniProt P01116, G12D)
# Assay: Protein-protein interaction inhibition between Kras and SOS1 (KrasG12D-SOS PPI) using AlphaScreen;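 also: kras produced in E. coli, Ni-coupled donor beads and streptavidin acceptor beads, excitation 680 nm with emission detected at 520–620 nm via singlet oxygen transfer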
# Format: biochemical
# Settings: AlphaScreen; biotin-tagged human Kras loaded with GDP, His-tagged human SOS1; read-out: KRAS G12D-SOS PPI IC50
row,SMILES,IC50 [nM]
1,CC[C@H](C)[C@@H]1NC(=O)[C@@H]2CCCCN2C(=O)C[C@@H](C)NC(=O)[C@H](CC(C)C)N(C)C(=O)[C@H](Cc2ccccc2)N(C)C(=O)[C@@H]2CCCN2C(=O)[C@H](CCc2ccc(C(F)(F)F)cc2)NC(=O)CN(C)C(=O)[C@H](Cc2ccc(Cl)cc2)N(C)C(=O)CN(C)C(=O)CN(C)C1=O [Compound 632] (cyclo(I[Sar][Sar][NMePhe(4-Cl)][Sar][hPhe(4-CF3)]P[NMeF][NMeL][d(β3hA)][Pip])),73
2,CCO[C@@H]1C[C@H]2C(=O)N(C)[C@@H](Cc3ccccc3)C(=O)N(C)[C@@H](CC(C)C)C(=O)N[C@H](C(=O)N3CCCC3)CC(=O)N(C)[C@@H](C)C(=O)N[C@@H]([C@@H](C)CC)C(=O)N(C)CC(=O)N(C)CC(=O)N(C)[C@@H](Cc3ccc(Cl)cc3)C(=O)N(C)CC(=O)N[C@@H](Cc3cccc(I)c3)C(=O)N2C1 [Compound 634] ([NMeA]I[Sar][Sar][NMePhe(4-Cl)][Sar][Phe(3-I)][Hyp](Et)[NMeF][NMeL]D-Pyrrolidide; lactam N-11),260
3,CC[C@H](C)[C@@H]1NC(=O)[C@H](CC(C)C)N(C)C(=O)C[C@@H](C(=O)N2CCCCC2)N(C)C(=O)[C@H]([C@@H](C)OC)N(C)C(=O)C2(CCCC2)NC(=O)[C@@H]2CCCN2C(=O)[C@H](CCc2ccc(C(F)(F)F)c(Cl)c2)NC(=O)CN(C)C(=O)[C@H](CC2CCCCC2)N(C)C(=O)[C@@H]2CCN2C(=O)[C@H](C)N(C)C1=O [Compound 639] ([NMeL]I[NMeA][Aze][NMeCha][Sar][hPhe(3-Cl-4-CF3)]P[Ac5c][NMeT](Me)[NMeD]-Piperidide; lactam N-11),14
4,CC(C)C[C@H]1C(=O)N[C@@H](C2CCCCC2)C(=O)N(C)[C@@H](C)C(=O)N2CC[C@H]2C(=O)N(C)[C@@H](CC2CCCCC2)C(=O)N(C)CC(=O)N[C@@H](CCc2ccc(C(F)(F)F)c(Cl)c2)C(=O)N2CCC[C@H]2C(=O)NC2(CCCC2)C(=O)N(C)[C@@H](C(C)C)C(=O)N(C)[C@H](C(=O)N2CCCCC2)CC(=O)N1C [Compound 642] ([NMeL][Chg][NMeA][Aze][NMeCha][Sar][hPhe(3-Cl-4-CF3)]P[Ac5c][NMeV][NMeD]-Piperidide; lactam N-11),54
5,CCO[C@@H]1C[C@H]2C(=O)NC3(CCCC3)C(=O)N(C)[C@@H](C3CCCCC3)C(=O)N(C)[C@H](C)CC(=O)N(C)[C@@H](CC(C)C)C(=O)N[C@@H]([C@@H](C)CC)C(=O)N(C)[C@@H](C)C(=O)N3CC[C@H]3C(=O)N(C)[C@@H](Cc3ccc(C(F)(F)F)cc3)C(=O)N(C)CC(=O)N[C@@H](CCc3ccc(C(F)(F)F)c(Cl)c3)C(=O)N2C1 [Compound 652] (cyclo([Ac5c][NMeChg][NMedβ3hAla][NMeL]I[NMeA][Aze][NMePhe(4-CF3)][Sar][hPhe(3-Cl-4-CF3)][Hyp](Et))),4.3
6,CC[C@H](C)[C@@H]1NC(=O)[C@H](C)N(C)C(=O)C[C@@H](C(=O)N2CCCCC2)N(C)C(=O)[C@H](C(C)C)N(C)C(=O)C2(CCCC2)NC(=O)[C@@H]2CCCN2C(=O)[C@H](CCCc2ccccc2)NC(=O)CN(C)C(=O)[C@H](CC2CCCCC2)N(C)C(=O)[C@@H]2CCN2C(=O)[C@H](C)N(C)C1=O [Compound 659] ([NMeA]I[NMeA][Aze][NMeCha][Sar][hhPhe]P[Ac5c][NMeV][NMeD]-Piperidide; lactam N-11),130
7,CC[C@H](C)[C@@H]1NC(=O)[C@H](CC(C)C)N(C)C(=O)C[C@@H](C(=O)N(C)C)N(C)C(=O)[C@H]([C@@H](C)CC)N(C)C(=O)[C@H](C(C)C)NC(=O)[C@@H]2CCCN2C(=O)[C@H](CCc2ccc(C(F)(F)F)c(Cl)c2)NC(=O)CN(C)C(=O)[C@H](Cc2ccc(C)cc2)NC(=O)[C@@H]2CCN2C(=O)[C@H](C)N(C)C1=O [Compound 660] ([NMeL]I[NMeA][Aze][Phe(4-Me)][Sar][hPhe(3-Cl-4-CF3)]PV[NMeI][NMeD]-NMe2; lactam N-11),210
8,CC[C@H](C)[C@@H]1NC(=O)[C@H](CC(C)C)N(C)C(=O)C[C@@H](C)NC(=O)[C@H](C(C)C)N(C)C(=O)C2(CCCC2)NC(=O)[C@@H]2CCCN2C(=O)[C@H](CCc2ccc(C(F)(F)F)c(Cl)c2)NC(=O)CN(C)C(=O)[C@H](CC2CCCCC2)N(C)C(=O)[C@@H]2CCN2C(=O)CN(C)C1=O [Compound 663] (cyclo([Ac5c][NMeV][d(β3hA)][NMeL]I[Sar][Aze][NMeCha][Sar][hPhe(3-Cl-4-CF3)]P)),16
9,CC[C@H](C)[C@@H]1NC(=O)[C@H](CC(C)C)N(CC)C(=O)C[C@@H](C(=O)N2CCCCC2)N(C)C(=O)[C@H](C(C)C)N(C)C(=O)C2(CCCC2)NC(=O)[C@@H]2CCCN2C(=O)[C@H](CCc2ccc(C(F)(F)F)c(Cl)c2)NC(=O)CN(C)C(=O)[C@H](CC2CCCCC2)N(C)C(=O)[C@@H]2CCN2C(=O)[C@H](C)N(C)C1=O [Compound 667] ([NEtLeu]I[NMeA][Aze][NMeCha][Sar][hPhe(3-Cl-4-CF3)]P[Ac5c][NMeV][NMeD]-Piperidide; lactam N-11),5.1
10,C#CC[C@@H]1CC(=O)N(C)[C@@H](C(C)C)C(=O)N[C@@H]([C@@H](C)CC)C(=O)N(C)CC(=O)N(C)CC(=O)N(C)[C@@H](Cc2ccc(Cl)cc2)C(=O)N(C)CC(=O)N[C@@H](CCc2ccc(C(F)(F)F)cc2)C(=O)N(C)[C@@H](CC(C)C)C(=O)NC2(CCCC2)C(=O)N(C)[C@@H](CC(C)C)C(=O)N1 [Compound 669] (cyclo([Ac5c][NMeL][X4][NMeV]I[Sar][Sar][NMePhe(4-Cl)][Sar][hPhe(4-CF3)][NMeL])),220
11,CC[C@H](C)[C@@H]1NC(=O)[C@H](CC(C)C)N(C)C(=O)C[C@@H](C(=O)N2CCCCC2)N(C)C(=O)[C@H](C2CCC2)N(C)C(=O)C2(CCCC2)NC(=O)[C@@H]2CCCN2C(=O)[C@H](CCc2ccc(C(F)(F)F)c(Cl)c2)NC(=O)CN(C)C(=O)[C@H](CC2CCCCC2)N(C)C(=O)[C@@H]2CCN2C(=O)[C@H](C)N(C)C1=O [Compound 672] ([NMeL]I[NMeA][Aze][NMeCha][Sar][hPhe(3-Cl-4-CF3)]P[Ac5c][NMeGly(cBu)][NMeD]-Piperidide; lactam N-11),2.5
12,CCO[C@@H]1C[C@H]2C(=O)NC3(CCCC3)C(=O)N(C)[C@@H]([C@@H](C)CC)C(=O)N(C)[C@H](C)CC(=O)N(C)[C@@H](CC(C)C)C(=O)N[C@@H]([C@@H](C)CC)C(=O)N[C@@H](C)C(=O)N3CC[C@H]3C(=O)N(CC)[C@@H](Cc3ccc(C(F)(F)F)cc3)C(=O)N(C)CC(=O)N[C@@H](CCc3ccc(C(F)(F)F)c(Cl)c3)C(=O)N2C1 [Compound 673] (cyclo(A[Aze][NEtPhe(4-CF3)][Sar][hPhe(3-Cl-4-CF3)][Hyp](Et)[Ac5c][NMeI][NMedβ3hAla][NMeL]I)),11
13,"CC[C@H](C)[C@@H]1NC(=O)[C@H](CC(C)C)N(C)C(=O)C[C@@H](C(=O)N2CCCCC2)N(C)C(=O)[C@H]([C@@H](C)CC)N(C)C(=O)C2(CCCC2)NC(=O)[C@@H]2CCCN2C(=O)[C@H](CCc2ccc(C(F)(F)F)c(F)c2)NC(=O)CN(C)C(=O)[C@H](C2CCCC2)N(C)C(=O)[C@@H]2CCN2C(=O)[C@H](C)N(C)C1=O [Compound 674] ([NMeL]I[NMeA][Aze][NMeGly(cPent)][Sar][hPhe(3-F,4-CF3)]P[Ac5c][NMeI][NMeD]-Piperidide; lactam N-11)",5.6
14,CC[C@H](C)[C@@H]1NC(=O)[C@H](CC(C)C)N(C)C(=O)C[C@@H](C(=O)N2CCCCC2)N(C)C(=O)[C@H](C(C)C)N(C)C(=O)C2(CCCC2)NC(=O)[C@@H]2CCCN2C(=O)[C@H](CCc2ccc(C(F)(F)F)c(Cl)c2)NC(=O)CN(C)C(=O)[C@H](CC2CCCCC2)N(C)C(=O)[C@@H]2CCN2C(=O)[C@H](COC2CC2)N(C)C1=O [Compound 676] ([NMeL]I[NMeS](Cyclopropyl)[Aze][NMeCha][Sar][hPhe(3-Cl-4-CF3)]P[Ac5c][NMeV][NMeD]-Piperidide; lactam N-11),31
15,CC[C@H](C)[C@@H]1NC(=O)[C@H](CC(C)C)N(C)C(=O)C[C@@H](C(=O)N(C)C)NC(=O)[C@H](C2CCCC2)N(C)C(=O)C2(CCCC2)NC(=O)[C@@H]2CCCN2C(=O)[C@H](CCc2ccc(C(F)(F)F)c(Cl)c2)NC(=O)CN(C)C(=O)[C@H](CC2CCCCC2)N(C)C(=O)[C@@H]2CCN2C(=O)[C@H](C)N(C)C1=O [Compound 677] ([NMeL]I[NMeA][Aze][NMeCha][Sar][hPhe(3-Cl-4-CF3)]P[Ac5c][NMeGly(cPent)]D-NMe2; lactam N-11),4.1
16,CC[C@H](C)[C@@H]1NC(=O)[C@H](CC(C)C)N(C)C(=O)C[C@@H](C(=O)N2CCCCC2)N(C)C(=O)[C@H](C(C)C)N(C)C(=O)C2(CCCC2)NC(=O)[C@@H]2CCCN2C(=O)[C@H](CCc2ccc(C(F)(F)F)c(Cl)c2)NC(=O)CN(C)C(=O)[C@H](Cc2ccc(Cl)cc2)N(C)C(=O)[C@@H]2CCN2C(=O)[C@H](C)N(C)C1=O [Compound 680] ([NMeL]I[NMeA][Aze][NMePhe(4-Cl)][Sar][hPhe(3-Cl-4-CF3)]P[Ac5c][NMeV][NMeD]-Piperidide; lactam N-11),9.9
17,"CCCOC[C@H]1C(=O)N(C)CC(=O)N[C@@H](CCc2ccc(C(F)(F)F)c(F)c2)C(=O)N2CCC[C@H]2C(=O)NC2(CCCC2)C(=O)N(C)[C@@H]([C@@H](C)CC)C(=O)N(C)[C@H](C(=O)N2CCCC2)CC(=O)N(C)[C@@H](CC(C)C)C(=O)N[C@@H]([C@@H](C)CC)C(=O)N(C)[C@@H](C)C(=O)N2CC[C@H]2C(=O)N1C [Compound 684] ([NMeL]I[NMeA][Aze][NMeS](Propyl)[Sar][hPhe(3-F,4-CF3)]P[Ac5c][NMeI][NMeD]-Pyrrolidide; lactam N-11)",1.9
18,CC[C@H](C)[C@@H]1NC(=O)[C@H](C)N(C)C(=O)C[C@@H](C(=O)N2CCCCC2)N(C)C(=O)[C@H](C(C)C)N(C)C(=O)C2(CCCC2)NC(=O)[C@@H]2CCCN2C(=O)[C@H](CCc2cccc(F)c2)NC(=O)CN(C)C(=O)[C@H](CC2CCCCC2)N(C)C(=O)[C@@H]2CCN2C(=O)[C@H](C)N(C)C1=O [Compound 685] ([NMeA]I[NMeA][Aze][NMeCha][Sar][X116]P[Ac5c][NMeV][NMeD]-Piperidide; lactam N-11),130
